# Like-named read-outs stand apart in the source and are kept apart here.
# Columns and labels:
# human mTOR enzyme = human mTOR enzyme (Homo sapiens, UniProt P42345); test: mTOR kinase assay (HTRF mTOR enzyme assay); format: biochemical; settings: 5 μM ATP, 0.2 μM GST-S6K, one hour at 30° C.
# Method: An HTRF mTOR enzyme assay was developed to assess the compounds' inhibitory activity. The mTOR assay buffer contained 10 mM Hepes (pH 7.4), 50 mM NaCl, 100 μg/ml BSA, 50 mM B-glycerophosphate, 10 mM MnCl2 and 0.5 mM DTT. […] 20 ng of human mTOR enzyme (<5% pure was preincubated with the compound for 10 minutes followed by the addition of 5 μM ATP and 0.2 μM GST-S6K (Zhang et al., Protein Expression and Purification 46, pp 414-420 (2006)). The reaction was incubated for one hour at 30° C. Anti phospho p70-S6K(Thr389) (˜1.7 ng/well, anti-phospho-p70S6K-cryptate (Pho-p70S6-Kin-K cat#64CUSKAY, from Cisbio)) and anti GST-XL665 (1:1 Ratio with the substrate GST-S6K, anti GST-XL665, cat#61 GSTXLB) Cisbio) were added after the reaction was stopped. The plates were read (PHERAstar, BMG) at least 2 hours after adding the anti phospho p70-S6K and the anti GST-XL665.
# Dose-response curves were plotted from the inhibition data generated, each in duplicate, from 8 point serial dilutions of inhibitory compounds. Concentration of compound was plotted against the HTRF em665/em590 ratio signal. To generate IC50 values, the dose-response curves were fitted to a standard sigmoidal curve and IC50 values were derived by nonlinear regression analysis.
# [1] = test system: phosphorylated 4E-BP1 Thr37/46 (p4E-BP1 Thr37/46), mTORC1 activity, PC3 cells; test: mTOR target engagement assay, immunofluorescent cell-based, p4E-BP1 Thr37/46 readout (mTORC1 activity); settings: Homo sapiens
# Summary of the method: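 PTEN-mutant PC3 prostate cells were treated with serially diluted compound in 5% FBS F12 medium (0.25% DMSO) for ninety minutes at 37° C, glyoxal-fixed, then immunostained overnight at 4° C for p4E-BP1 Thr37/46 with an Alexa Fluor 488 secondary. IC50 came from four-parameter fits of fluorescence, DMSO-only wells defining 100%.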
# [2] = test system: phosphorylated AKT Ser473 (pAKT S473), mTORC2 activity, PC3 cells; test: mTOR target engagement assay, immunofluorescent cell-based, pAKT S473 readout (mTORC2 activity); settings: Homo sapiens
# Summary of the method: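 After blocking, cells were stained overnight at 4 °C with anti-pAKT S473 antibody, then a fluorescent secondary; inhibition was read as reduced fluorescence intensity.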
# human mTOR enzyme, sequence (P42345 1360-2549 limits assumed): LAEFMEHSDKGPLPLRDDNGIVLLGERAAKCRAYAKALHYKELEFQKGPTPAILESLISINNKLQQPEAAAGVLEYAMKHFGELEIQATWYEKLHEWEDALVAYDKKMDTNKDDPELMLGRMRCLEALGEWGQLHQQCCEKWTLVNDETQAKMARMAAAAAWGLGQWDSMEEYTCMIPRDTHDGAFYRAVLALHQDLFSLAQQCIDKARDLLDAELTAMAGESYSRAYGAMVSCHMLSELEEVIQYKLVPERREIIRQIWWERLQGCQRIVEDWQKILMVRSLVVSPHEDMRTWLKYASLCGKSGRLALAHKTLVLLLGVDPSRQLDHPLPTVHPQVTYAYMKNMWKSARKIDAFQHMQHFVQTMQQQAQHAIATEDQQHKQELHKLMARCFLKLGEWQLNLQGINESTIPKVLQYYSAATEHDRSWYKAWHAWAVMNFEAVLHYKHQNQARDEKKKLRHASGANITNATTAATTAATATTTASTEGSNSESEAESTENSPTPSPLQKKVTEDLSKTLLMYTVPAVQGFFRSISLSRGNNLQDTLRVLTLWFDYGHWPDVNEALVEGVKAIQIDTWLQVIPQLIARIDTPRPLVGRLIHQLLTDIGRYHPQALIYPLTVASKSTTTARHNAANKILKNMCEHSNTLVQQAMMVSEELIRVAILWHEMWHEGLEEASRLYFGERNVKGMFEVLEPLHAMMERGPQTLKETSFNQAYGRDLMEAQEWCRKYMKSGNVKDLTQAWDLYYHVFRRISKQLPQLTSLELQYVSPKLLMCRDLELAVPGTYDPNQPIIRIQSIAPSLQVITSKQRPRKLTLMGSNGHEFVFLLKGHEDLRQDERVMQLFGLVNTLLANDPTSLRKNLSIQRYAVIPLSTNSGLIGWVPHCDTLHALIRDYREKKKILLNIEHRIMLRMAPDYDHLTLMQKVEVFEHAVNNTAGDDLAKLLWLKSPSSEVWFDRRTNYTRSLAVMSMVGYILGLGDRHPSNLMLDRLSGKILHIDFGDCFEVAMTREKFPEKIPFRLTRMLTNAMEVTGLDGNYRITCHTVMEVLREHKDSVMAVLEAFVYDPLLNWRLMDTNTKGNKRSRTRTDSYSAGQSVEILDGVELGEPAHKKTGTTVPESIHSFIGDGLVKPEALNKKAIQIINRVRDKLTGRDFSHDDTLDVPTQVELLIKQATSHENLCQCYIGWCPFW
IC50 (human mTOR enzyme) [nM],Structure (SMILES),other results
10 to 25,CC(=O)c1c(N2CC3CCC2CN3C(=O)[C@@H](C)O)nc2c(-c3ccc(-c4ccccc4)nc3)cnn2c1N (stereo partly shown) [Compound 47],–
1 to 10,CC(=O)c1c(N2CC3CCC2CN3C(=O)c2nnc[nH]2)nc2c(-c3ccc(-c4ccccc4)nc3)cnn2c1N (stereo not shown) [Compound 48],–
489,"Nc1cc([C@@H]2C[C@H]3CC[C@@H](C2)N3)nc2c(-c3cc[nH]c(=O)c3)cnn12 [Example 8B, 4-{7-Amino-5-[(3-exo)-8-azabicyclo[3.2.1]oct-3-yl]pyrazolo[1,5-a]pyrimidin-3-yl}pyridin-2(1H)-one]",–
2,"Nc1c(F)c([C@@H]2C[C@H]3CC[C@@H](C2)N3C(=O)CO)nc2c(-c3ccc(-c4ncc[nH]4)nc3)cnn12 [Example 8A, 1-[(3-Exo)-3-{7-amino-6-fluoro-3-[6-(1H-imidazol-2-yl)pyridin-3-yl]pyrazolo[1,5-a]pyrimidin-5-yl}-8-azabicyclo[3.2.1]oct-8-yl]-2-hydroxyethanone]",–
–,"CS(=O)(=O)c1c([C@@H]2C[C@H]3CC[C@@H](C2)N3C(=O)c2nnc[nH]2)nc2c(-c3ccc(-c4ccc(F)cc4)nc3)cnn2c1N [Compound 3.105, ((1R,3s,5S)-3-(7-amino-3-(6-(4-fluorophenyl)pyridin-3-yl)-6-(methylsulfonyl)pyrazolo[1,5-a]pyrimidin-5-yl)-8-azabicyclo[3.2.1]octan-8-yl)(4H-1,2,4-triazol-3-yl)methanone]","IC50 ([1]; PC-3, Table 3-1, PC3 cells, read-out: p4E-BP1 Thr37/46 IC50): 1 to 100 nM; IC50 ([2]; PC-3, Table 3-1, PC3 cells): 1 to 100 nM"
–,"CC(=O)c1c([C@@H]2C[C@H]3CC[C@@H](C2)N3C(=O)c2nnc[nH]2)nc2c(-c3ccc(-c4ccc5nn(C)cc5c4)nc3)cnn2c1N [Compound 1.1.70, 1-(5-((1R,3s,5S)-8-(4H-1,2,4-triazole-3-carbonyl)-8-azabicyclo[3.2.1]octan-3-yl)-7-amino-3-(6-(2-methyl-2H-indazol-5-yl)pyridin-3-yl)pyrazolo[1,5-a]pyrimidin-6-yl)ethanone]","IC50 ([1]; PC-3, PC3 cells, compound treatment ninety minutes at 37° C., read-out: p4E-BP1 Thr37/46 IC50): 1 to 100 nM; IC50 ([2]; PC-3, PC3 cells, compound treatment ninety minutes at 37° C.): 1 to 100 nM"

Structure (SMILES),IC50 (human mTOR enzyme) [nM],other results
CC(=O)c1c(N2C3CCC2CN(C(=O)[C@@H](C)O)C3)nc2c(-c3ccc(-c4ccccc4)nc3)cnn2c1N [Compound 50],10 to 25,–
"CC(=O)c1c([C@@H]2C[C@H]3CC[C@@H](C2)N3C(=O)c2nnc[nH]2)nc2c(-c3ccc(-c4nn(C)cc4F)nc3)cnn2c1N [Compound 1.1.93, 1-(5-((1R,3s,5S)-8-(4H-1,2,4-triazole-3-carbonyl)-8-azabicyclo[3.2.1]octan-3-yl)-7-amino-3-(6-(4-fluoro-1-methyl-1H-pyrazol-3-yl)pyridin-3-yl)pyrazolo[1,5-a]pyrimidin-6-yl)ethanone]",2.3,"IC50 ([1]; PC-3, PC3 cells, given as a number, no unit, read-out: p4E-1 Thr37/46 IC50): 3880 nM; IC50 ([2]; PC-3, PC3 cells, given as a number, no unit): 4070 nM"
CC(=O)c1c(N2C3CCC2CN(C(=O)CO)C3)nc2c(-c3ccc(-c4ccccc4)nc3)cnn2c1N [Compound 49],1 to 10,–

# — patent publication US9227971B2, “Pyrazolo[1,5-a]pyrimidine compounds as mTOR inhibitors” (Merck Sharp & Dohme Corp., priority 2010, dated 2016)
